Experiment [1] deals with glutathione peroxidase (GSH-Px). Kind of experiment: GSH-Px activity in cortex and hippocampus after continuous perfusion of Aβ (1-40). The conditions noted are these: Aβ (1-40) rats; for GSH-PX, hippocampus / GSH-PX, cortex: n = 7; for GSH-PX, hippocampus: model 9.32 ± 1.01, sham 16.19 ± 1.19; for GSH-PX, cortex: model 11.18 ± 1.32, sham 15.86 ± 0.91. Type of experiment: in vivo, Wistar rats. As to the method:
(§1) Male Wistar rats, which were 10-weeks old and weighed approximately 280 grams, were used. One animal was placed in one cage, while the room temperature was kept at 23° C., with food and water freely accessible. Rats were anaesthetized with sodium pentobarbital (40 mg/kg), and were fixed to stereotaxic apparatus with the position of ventral decubitus. Head skin was cut open, a cannula for Aβ (1-40) perfusion was implanted into right ventricle. According to the stereotaxic profile of rat brain by Paxions and Watson, the implantation site was located 0.3 mm behind and 1.1 mm in the right side of anterior fontanelle, with the depth of 4.0 mm. The cannula was connected to a micro-osmotic pump. The pump was placed on the back of the rat. Aβ (1-40) was dissolved in 35% acetonitrile/0.1% trifluroacetic acid, and was continuously perfused intracerebroventricularly (i.c.v.) at 300 pmol/day, while only the solvent (35% acetonitrile/0.1% trifluroacetic acid) was perfused in the control group.
(§2) Rats were randomly classified into […] groups, with 10 animals per group. 1) the sham surgery group: only 35% acetonitrile/0.1% trifluroacetic acid+solvent was perfused into the ventricles of the rats; 2) the model group: Aβ (1-40)+solvent; 3) Aβ (1-40)+L-NBP 10 mg/kg group; 4) Aβ (1-40)+L-NBP 30 mg/kg group. Respective drug or solvent was drenched since the 2nd day after the surgery. The water maze experiment was performed on the 9-13 day after the surgery, while the platform exploration experiment was performed on the 13th day, and the working memory test was performed on the 14-16th days. Animals were decapitated to remove brains for biochemical assay on the 17th day. In all ethological tests, medicines were administered 40 minutes prior to the respective test.
(§3) Malondialdehyde (MDA) and glutathione peroxidase (GSH-Px) were determined by the same assays as above.
(§4) All results were expressed in mean±standard error. Comparison of latencies between groups in water maze experiment was performed using two-factor analysis of variance in replicate. Comparison between groups was performed using post hoc LSD or Turkey test. Platform exploration test in water maze experiment, working memory test and biochemical assay were analyzed using one-factor analysis of variance. A difference was considered significant when p<0.05.

The test system of the next experiment is malondialdehyde (MDA). Kind of experiment: MDA content in cortex and hippocampus after continuous perfusion of Aβ (1-40). Type of experiment: in vivo, Wistar rats. The following applies: Aβ (1-40) rats; for MDA, hippocampus / MDA, cortex: n = 7; for MDA, hippocampus: model 1.48 ± 0.12, sham 1.13 ± 0.06; for MDA, cortex: model 1.48 ± 0.14, sham 1.10 ± 0.09. How it is done:
as §1, §2, §3, §4

SMILES strings stand for the structures. “Also recorded” adds a separate entry of the source.

With `CCCC[C@@H]1OC(=O)c2ccccc21` [L-NBP, L-n-butylphthalide], the “GSH-Px activity after treatment (in words)” value is on record as “could also increase the activity of GSH-Px, but with no statistically significant difference” in experiment [1] (10 mg/kg) and “increased significantly” in experiment [1] (30 mg/kg, p<0.01). The “GSH-PX, hippocampus” value in experiment [1] (10 mg/kg) amounted to 12.73 ± 1.34 U/mg protein; in experiment [1] (30 mg/kg, p<0.01 vs model), 18.91 ± 1.16 U/mg protein. Moreover, the “GSH-PX, cortex” value in experiment [1] (10 mg/kg) is listed as 11.73 ± 0.53 U/mg protein; in experiment [1] (30 mg/kg, p<0.01 vs model) it was 15.40 ± 1.03 U/mg protein. The “GSH-Px activity and MDA content (overall conclusion)” value in experiment [1] is “could improve GSH-Px activity and reduce MDA content”. The “MDA, hippocampus” value with malondialdehyde (MDA) (10 mg/kg, p<0.01 vs model) worked out at 1.12 ± 0.07 nmol/mg protein; in the experiment on malondialdehyde (MDA) (30 mg/kg, p<0.05 vs model), 1.15 ± 0.07 nmol/mg protein. The “MDA, cortex” value with malondialdehyde (MDA) (10 mg/kg, p<0.05 vs model) stood at 1.06 ± 0.05 nmol/mg protein; in the experiment with malondialdehyde (MDA) (30 mg/kg, p<0.05 vs model), 1.06 ± 0.10 nmol/mg protein. In addition, the “reduction of hippocampal MDA content” value in the experiment with malondialdehyde (MDA) (10 mg/kg, vs model, p<0.01) stood at 24.3%. The “reduction of cortical MDA content” value with malondialdehyde (MDA) (10 mg/kg, vs model, p<0.05) worked out at 28.4%. In addition, in the experiment with malondialdehyde (MDA) (30 mg/kg, vs model group p<0.05), the “effect on cortical and hippocampal MDA content (in words)” value is “weaker than that in the 10 mg/kg group, yet were still significantly different; also recorded: a little weaker in the 30 mg/kg group than in the 10 mg/kg group, yet still significantly different”.

For the origin of these results see patent US8552058B2, “Application of L-n-butylphthalide in preventing and treating dementia” (CSPC Zhongqi Pharmaceutical Technology (Shijazhuang) Co., …, priority 2004, dated 2013).
